For one assay, the system named is CHOP. The experiment in a line: Intra-tumoral proteins analysis by western blot: CHOP. The class given is in vivo, mice. A general note: A western blot detects proteins with antibodies after separation by electrophoresis.
In assay [1] the test system is CT26 tumors. Description: CT26 allografts experiment, HA15 and anti-PD1 (Example 1). The class given is in vivo. The note with it: single treatment; CT26 allograft in BALB/c mice; HA15 0.7 mg/mouse/day IP; anti-PD1 4 injections of 0.125 mg/mouse. The method, then:
FIG. 1: CT26 cells (5.104) are injected subcutaneously in Balb/C mice. As soon as the tumors reach 50 mm^3, mice are randomly distributed into different experimental groups and treated daily (intraperitoneal) with Vehicle or HA15 (35 mg/kg) and twice a week during two weeks with anti-PD1 (6.25 mg/kg) or PBS. A: Individual tumor growth curves. B: Survival curves. Mice are euthanized when their tumor reach 800 mm^3. A log-rang (Mantel Cox) test was performed to compare statistically the survival in the different experimental groups. Ns=non-significant, *: p≤0.05, **: p≤0.01, ***: p≤0.001.
CT26 Allografts Experiment Female BALB/cOlaHsd mice were obtained at 5 weeks of age from Envigo Laboratory. One week later, these mice were inoculated subcutaneously with CT26 cells (5×10^5 cells/mouse). As soon as its tumor reach 50 mm^3, each mouse was allocated in the different experimental group following a randomization table created with the “Graphpad Quickcalcs” tool (7 mice/group). […] Tumor volumes were determined using the equation Volume=(Length×(Width)^2)/2. […]

Another assay concerns IFNγ. The experiment in a line: Intra-tumoral proteins analysis by western blot and ELISA: IFNγ. It counts as in vivo, mice. The method, then:
FIG. 2: HA15 induces in vivo the expression of CHOP and IFNg in mice tumors: tumors were harvested from the mice after HA15 treatment and crushed into lysis buffer to get protein lysates. (A). Tumor lysates were analyzed by western blotting with CHOP, IFNγ and HSP90 antibodies. Densitometric analyses were then performed on the radiogram presented here thanks to the ImageJ (Fiji) program. The signal intensity of the target protein is weighted by that of the HSP90 control. (B) The intra-tumoral […] was dosed in the lysates by a Mouse IFN-g ELISA kit. Mann-Whitney test was performed to compare statistically the protein expressions in the two different groups.
Pieces of tumor were crushed thanks to the “Precellys 24 Tissue Homogenizer” into CK Mix Tubes (#P000918-LYSK0, Bertin Technologies) in presence of protein lysis buffer containing 50 mmol/l Tris-HCl (pH 7.5), 15 mmol/l, NaCl, 1% Triton X-100, and 1× protease and phosphatase inhibitors. Tumor lysates were then centrifuged to remove cells debris.
For western Blot, tumor lysates are prepared in Laemmli buffer. Briefly, tumor lysates (30 μg) were separated by SDS-PAGE, transferred onto a polyvinylidene fluoride membrane (Millipore), and then exposed to the appropriate antibodies. The antibody directed against IFN-gamma was purchased from Abcam (ab133566). Proteins were visualized with the ECL System from Amersham. […]

For assay [2], the system named is CT26 tumors. Description: CT26 tumor model, oral HA15 and anti-PDL1 (Example 2). The class given is in vivo, mice. As to the method: Mice: A total of 60 female BALB/C mice aged 5 weeks and weighted between 15-19 g, were ordered from Envigo. These had one week of acclimatation in C3M animal facility. Animals were housed in IVC cages (5 per cage) with individual mice identified by ear tag. All animals were allowed free access to a standard certified commercial diet and sanitised water during the study. The holding room was maintained under standard conditions: 18-24° C., 55-70% humidity and a 12h light/dark cycle. One week before dosing start, 2 animals died while blood sampling.
58 Mice were randomly assigned into the following treatment groups:
Cells: CT26 cell lines were thawed 2 weeks before mice arrival. These were cultured in RPMI medium supplemented with 10% FBS, 1% Penicillin/streptomycin and 2% sodium pyruvate. Cells were expanded 48 hrs prior to the subcutaneous injection in 5×T175 flasks at concentration of 0.8×10^6 cells. This concentration allows cells to be 70-80% confluency at the day of the injection. Briefly, cells were washed with PBS, detached from the flasks using 3 ml of trypsin, collected with RPMI medium and centrifuged at 300 g for 5 min. These were then resuspended in PBS, counted and 0.5×10^6 cells/mouse ([…] in total for 80 mice) were taken and re-centrifuged to be resuspended in 100 μl/mouse of PBS ready to be subcutaneously injected (8 ml in total for 80 mice). […]

Setting [3] is: liver, after HA15 treatment (data not shown).

Consider `CC(=O)Nc1nc(-c2cccc(NS(=O)(=O)c3cccc4c(N(C)C)cccc34)c2)cs1` [HA15], for which the CHOP expression entry is on record as “induces” in the assay with CHOP (CT26 tumors harvested after HA15 treatment, western blot) and “no variation” in the assay on CHOP (setting [3]). For the same compound, the complete response in the assay on CT26 tumors [1] was found to be 14%. Further, the IFNγ expression entry in the assay with IFNγ (CT26 tumors harvested after HA15 treatment, western blot and ELISA) was “induces”; in the assay with IFNγ (setting [3]) it was “no variation”. The tumor volume entry in the assay on CT26 tumors [2] (after 13 days of daily oral administration, statistically significant compared with vehicle group) is reported as “decreased”. Besides, in the assay with CT26 tumors [2] (after mice termination at day 13, confirms the reduction in tumor growth), the tumor weight result is given as “confirmed”.

(Values after patent publication US20260151376A1, “COMBINATION THERAPY FOR THE TREATMENT OF CANCER” (INSTITUT NATIONAL DE LA SANTÉ ET DE LA RECHERCHE MÉDICALE, priority 2022, published 2026).)
